Data taken from patent US6281352.
Like-named read-outs stand apart in the source and are kept apart here.

With `CNC(=O)[C@@H]1CCCCN(S(=O)(=O)c2ccc([N+](=O)[O-])cc2)CCC[C@H](C(=O)OC(C)(C)C)[C@@H](CC(C)C)C(=O)N1` the ring closure, yield of all isomers (from CNC(=O)[C@H](CCCCNS(=O)(=O)c1ccc([N+](=O)[O-])cc1)NC(=O)[C@H](CC(C)C)[C@H](CCCO)C(=O)OC(C)(C)C, amine bond, PPh3/DIAD, THF, 24.7 mM) was 26%.
`C=C1CO[C@H](COCc2ccccc2)[C@@H](C/C=C/c2ccccc2)C(=O)N[C@H](C(=O)NC)CCCN(C(C)=O)C1` gave a ring closure, yield of all isomers (from C=C(CBr)CO[C@H](COCc1ccccc1)[C@@H](C/C=C/c1ccccc1)C(=O)N[C@@H](CCCN)C(=O)NC, amine bond, diisopropylethylamine, acetonitrile, 2.1 mM, 3 steps) of 76%.
Compound `CNC(=O)[C@@H]1CCC(=O)OCCC[C@H](C(=O)OC(C)(C)C)[C@@H](CC(C)C)C(=O)N1` has a ring closure, yield of all isomers (from CNC(=O)[C@H](CCC(=O)O)NC(=O)[C@H](CC(C)C)[C@H](CCCO)C(=O)OC(C)(C)C, ester bond, PPh3/DIAD, THF, 9.4 mM, 16.0 h, 2 steps) of 24%.
With `CNC(=O)[C@@H]1CCCCNC(=O)CC[C@H](C(=O)OC(C)(C)C)N[C@@H](CCc2ccccc2)C(=O)N1` the ring closure, yield of all isomers (from CNC(=O)[C@@H](N)CCCCNC(=O)CC[C@@H](N[C@@H](CCc1ccccc1)C(=O)O)C(=O)OC(C)(C)C, amide bond, BOP, DMF, 24.0 h) was 16%.
`CNC(=O)[C@@H]1CCCCN(S(=O)(=O)c2c(C)cc(C)cc2C)CCC[C@H](C(=O)OC(C)(C)C)[C@@H](CC(C)C)C(=O)N1` gave a ring closure, yield of all isomers (from CNC(=O)[C@H](CCCCNS(=O)(=O)c1c(C)cc(C)cc1C)NC(=O)[C@H](CC(C)C)[C@H](CCCO)C(=O)OC(C)(C)C, amine bond, PPh3/DIAD, THF, 21.5 mM, 16.0 h, 2 steps) of 30%.
Work on `COC(=O)[C@@H]1Cc2ccc(cc2)OCCC[C@H](C(=O)OC(C)(C)C)[C@@H](CC(C)C)C(=O)N1` yielded a ring closure, yield of all isomers (from COC(=O)[C@H](Cc1ccc(O)cc1)NC(=O)[C@H](CC(C)C)[C@H](CCCBr)C(=O)OC(C)(C)C, ether bond, Cs2CO3, DMF, 32.8 mM, 80.0 °C, 0.75 h) of 74%.
For `CNC(=O)[C@@H]1CCCCN(S(=O)(=O)C(F)(F)F)CCC[C@H](C(=O)OC(C)(C)C)[C@@H](CC(C)C)C(=O)N1`, the ring closure, yield of all isomers (from CNC(=O)[C@H](CCCCNS(=O)(=O)C(F)(F)F)NC(=O)[C@H](CC(C)C)[C@H](CCCO)C(=O)OC(C)(C)C, amine bond, DIAD/PPh3, THF, 15.6 mM, 16.0 h, 2 steps) was 52%.
With `COC(=O)[C@@H]1CCCc2ccc(cc2)OCCC[C@H](C(=O)OC(C)(C)C)[C@@H](CC(C)C)C(=O)N1` the ring closure, yield of all isomers (from COC(=O)[C@H](CCCc1ccc(O)cc1)NC(=O)[C@H](CC(C)C)[C@H](CCCBr)C(=O)OC(C)(C)C, ether bond, Cs2CO3, DMF, 8.7 mM, 0.0 °C, 2.0 h) was 32%.
`CNC(=O)[C@@H]1CCCCNC(=O)C[C@H](C(=O)OC(C)(C)C)N[C@@H](CCc2ccccc2)C(=O)N1` gave a ring closure, yield of all isomers (from CNC(=O)[C@@H](N)CCCCNC(=O)C[C@@H](N[C@@H](CCc1ccccc1)C(=O)O)C(=O)OC(C)(C)C, amide bond, BOP, DMF, 24.0 h, 2 steps) of 30%.
`CNC(=O)[C@@H]1CCCCN(S(=O)(=O)c2cn(C)cn2)CCC[C@H](C(=O)OC(C)(C)C)[C@@H](CC(C)C)C(=O)N1` showed a ring closure, yield of all isomers (from CNC(=O)[C@H](CCCCNS(=O)(=O)c1cn(C)cn1)NC(=O)[C@H](CC(C)C)[C@H](CCCO)C(=O)OC(C)(C)C, amine bond, PPh3/DIAD, THF, 17.1 mM, 16.0 h) of 52%.
